The values below come from patent US20250101062A1, “ANTIMICROBIAL PEPTIDES” (Board of Regents of the University of Nebraska, priority 2023, published 2025).

Where no end group is shown, it is not given here.

For one data set, the system named is A. baumannii B28-16. The class given is cell-based, Acinetobacter baumannii. The settings on record: B28-16. The procedure, abridged:
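Peptides twofold serially diluted against exponential-phase resistant clinical isolates at ~10^5 CFU/mL in MHB (also diluted MHB, TSB or LB in one protocol), CLSI-based broth microdilution. Incubated overnight at 37° C., OD 600 nm read; MIC taken as lowest concentration without growth, reported as ranges.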

The subject of data set [1] is human keratinocyte HaCaT cells. Kind of data set: Cell viability assay (MTS). Type of data set: cell-based. As to the method:
Human keratinocyte HaCaT cells were grown in DMEM/high glucose (Hyclone, UT) containing 10% fetal bovine serum (Mediatech, Corning, Manassas, VA). […] The mixture was incubated at 37° C. in 5% CO2 for 24 hours.
HepG2 cells were cultured in ATCC-formulated Eagle's Minimum Essential Medium with 10% FBS. A549 cells were grown in ATCC-formulated F-12K Medium containing 10% FBS.

For the next data set, the system named is E. coli E423-17. The data set is described as follows: Membrane permeabilization (propidium iodide). The class given is cell-based, Escherichia coli. The settings on record: Example 1, 1×MIC.
The next data set concerns P. aeruginosa E411-17. Kind of data set: Membrane depolarization (DiBAC4(3)). Type of data set: cell-based, Pseudomonas aeruginosa. The settings on record: Example 2, PBS with glucose. As to the method:
Bacterial membrane depolarization was conducted (Marks, et al. (2013) PLoS One 8(5):e63158). Briefly, an overnight culture of MRSA USA300 or P. aeruginosa E411-17 was inoculated into TSB and grown to exponential phase. Bacteria were washed with 1×PBS, re-suspended in twice the volume of 1×PBS containing 25 mM glucose, and incubated at 37° C. for 15 minutes. Then, 500 nM (final concentration) of the DiBAC4 (3) bis-(1, 3-dibutylbarbituric acid) trimethine oxonol (ANASPEC, CA) was added and vortexed gently. Aliquots of 90 μL of the energized bacteria solution were loaded to the 96 well plates (Corning COSTAR, AZ) and placed in a FLUOstar® Omega microplate reader (BMG LABTECH, NC). Fluorescence was read for 20 minutes at excitation and emission wavelengths of 485 nm and 520 nm, respectively. Then, 10 μL of peptide solutions was added and fluorescence readings were recorded for 40 minutes. Triton® X-100 (0.1%) was used as a positive control.

Consider RRWWRWWR-NH2 [W543], for which, in the data set on A. baumannii B28-16, the “Activity (MIC) A. baumannii” value is greater than 32 µM. Also, the “toxicity to human HaCaT skin cells” value in data set [1] was “least toxic”. Besides, the membrane permeabilization in the data set on E. coli E423-17 is 30 minute delay in membrane permeabilization.

As for `CC[C@H](C)[C@H](NC(=O)[C@H](CCCCN)NC(=O)[C@H](CCC(=O)O)NC(=O)[C@H](CCCCN)NC(=O)[C@H](CO)NC(=O)[C@H](CCCCN)NC(=O)[C@H](CCCNC(=N)N)NC(=O)[C@H](Cc1ccccc1)NC(=O)[C@H](Cc1ccccc1)NC(=O)[C@H](CC(=O)O)NC(=O)CNC(=O)[C@H](CC(C)C)NC(=O)[C@@H](N)CC(C)C)C(=O)NCC(=O)N[C@@H](CCCCN)C(=O)N[C@@H](CCC(=O)O)C(=O)N[C@@H](Cc1ccccc1)C(=O)N[C@@H](CCCCN)C(=O)N[C@@H](CCCNC(=N)N)C(=O)N[C@H](C(=O)N[C@H](C(=O)N[C@@H](CCC(N)=O)C(=O)N[C@@H](CCCNC(=N)N)C(=O)N[C@H](C(=O)N[C@@H](CCCCN)C(=O)N[C@@H](CC(=O)O)C(=O)N[C@@H](Cc1ccccc1)C(=O)N[C@@H](CC(C)C)C(=O)N[C@@H](CCCNC(=N)N)C(=O)N[C@@H](CC(N)=O)C(=O)N[C@@H](CC(C)C)C(=O)N[C@H](C(=O)N1CCC[C@H]1C(=O)N[C@@H](CCCNC(=N)N)C(=O)N[C@H](C(=O)N[C@@H](CCC(=O)O)C(=O)N[C@@H](CO)C(=O)O)[C@@H](C)O)C(C)C)[C@@H](C)CC)C(C)C)[C@@H](C)CC` [LL-37], the membrane depolarization result in the data set with P. aeruginosa E411-17 was “most powerful in membrane depolarization”.
